Reference: publication PMC1345695 (Nucleic Acids Research, 2006)

Biological target: wt tetrameric Lac repressor (tet. LacR) (Escherichia coli, UniProt P03023)
Assay: band shift of operator DNA, IPTG titration, non-linear regression
Assay type: binding

Sequence of wt tetrameric Lac repressor (tet. LacR) (P03023 whole entry): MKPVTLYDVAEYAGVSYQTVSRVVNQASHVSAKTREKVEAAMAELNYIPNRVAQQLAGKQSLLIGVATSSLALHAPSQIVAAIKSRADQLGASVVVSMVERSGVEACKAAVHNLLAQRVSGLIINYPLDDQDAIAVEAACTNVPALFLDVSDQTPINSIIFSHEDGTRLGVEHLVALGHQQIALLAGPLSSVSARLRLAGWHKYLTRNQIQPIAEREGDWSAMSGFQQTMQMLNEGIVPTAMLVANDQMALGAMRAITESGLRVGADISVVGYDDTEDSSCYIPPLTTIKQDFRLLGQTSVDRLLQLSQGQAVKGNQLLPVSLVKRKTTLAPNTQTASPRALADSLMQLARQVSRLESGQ

- Kd: 8.2 µM
SMILES: CC(C)S[C@@H]1O[C@H](CO)[C@H](O)[C@H](O)[C@H]1O [IPTG]
